Activity calls are given as the source filed them. No cut-off for these calls is given here.
Tests used:
[1] = molecular target: T1, Phosphatidylinositol 4,5-bisphosphate 3-kinase catalytic subunit alpha isoform (Homo sapiens, UniProt P42336)
[2] = Inhibition of TORC2 in human A2058 cells assessed as decrease in PKB/Akt phosphorylation at Ser473 after 1 hr by Western blot analysis; format: cell-based; details: A2058, 1 h
[3] = Inhibition of TORC1 in human A2058 cells assessed as decrease in S6 phosphorylation at Ser235/236 after 1 hr by Western blot analysis; format: cell-based; details: A2058, 1 h
[4] = molecular target: Serine/threonine-protein kinase mTOR (Homo sapiens, UniProt P42345)
[5] = molecular target: Phosphatidylinositol 3-kinase catalytic subunit type 3 (Homo sapiens, UniProt Q8NEB9); experiment: Inhibition of human VPS34 (282 to 879 residues) expressed in mammalian expression system by KINOMEscan assay
Mus musculus [6] = experiment: Toxicity in BALB/C nude mouse xenografted with human OVCAR3 cells assessed as body weight loss at 50 mg/kg, po administered daily for 28 days relative to control; format: organism-based; details: in vivo, 672 h
Rattus norvegicus [7] = experiment: Increase in insulin levels in Sprague-Dawley rat plasma at 10 mg/kg, po administered as single dose; format: functional, organism-based
Rattus norvegicus [8] = experiment: Increase in glucose levels in Sprague-Dawley rat plasma at 10 mg/kg, po administered as single dose after 8 hrs; format: functional, organism-based
Mus musculus [9] = experiment: Increase in insulin levels in C57BL/6JRj mouse plasma at 50 mg/kg, po administered as single dose; format: functional, organism-based
Mus musculus [10] = experiment: Increase in glucose levels in C57BL/6JRj mouse plasma at 50 mg/kg, po administered as single dose; format: functional, organism-based
Mus musculus [11] = experiment: Antiepileptic activity in Tsc1flox/flox/GFAP-Cre conditional knocked out mouse model assessed as reduction in seizures at 50 mg/kg, po qd treated from days 21 to 53 postnatal by electroencephalography; format: functional, organism-based
OVCAR-3 = experiment: Antitumor activity against human OVCAR3 cells xenografted in BALB/C nude mouse assessed as tumor growth inhibition at 50 mg/kg, po administered daily for 28 days relative to control; format: functional; details: OVCAR-3, po, 672 h, read-out: TGI
[12] = molecular target: Phosphatidylinositol 4-kinase beta (Homo sapiens, UniProt Q9UBF8)
Description: Inhibition of human PI4Kbeta (1 to 828 residues) expressed in mammalian expression system by KINOMEscan assay

[13] = molecular target: T2, Phosphatidylinositol 4,5-bisphosphate 3-kinase catalytic subunit delta isoform (Homo sapiens, UniProt O00329)
T2 sequence (O00329 whole entry): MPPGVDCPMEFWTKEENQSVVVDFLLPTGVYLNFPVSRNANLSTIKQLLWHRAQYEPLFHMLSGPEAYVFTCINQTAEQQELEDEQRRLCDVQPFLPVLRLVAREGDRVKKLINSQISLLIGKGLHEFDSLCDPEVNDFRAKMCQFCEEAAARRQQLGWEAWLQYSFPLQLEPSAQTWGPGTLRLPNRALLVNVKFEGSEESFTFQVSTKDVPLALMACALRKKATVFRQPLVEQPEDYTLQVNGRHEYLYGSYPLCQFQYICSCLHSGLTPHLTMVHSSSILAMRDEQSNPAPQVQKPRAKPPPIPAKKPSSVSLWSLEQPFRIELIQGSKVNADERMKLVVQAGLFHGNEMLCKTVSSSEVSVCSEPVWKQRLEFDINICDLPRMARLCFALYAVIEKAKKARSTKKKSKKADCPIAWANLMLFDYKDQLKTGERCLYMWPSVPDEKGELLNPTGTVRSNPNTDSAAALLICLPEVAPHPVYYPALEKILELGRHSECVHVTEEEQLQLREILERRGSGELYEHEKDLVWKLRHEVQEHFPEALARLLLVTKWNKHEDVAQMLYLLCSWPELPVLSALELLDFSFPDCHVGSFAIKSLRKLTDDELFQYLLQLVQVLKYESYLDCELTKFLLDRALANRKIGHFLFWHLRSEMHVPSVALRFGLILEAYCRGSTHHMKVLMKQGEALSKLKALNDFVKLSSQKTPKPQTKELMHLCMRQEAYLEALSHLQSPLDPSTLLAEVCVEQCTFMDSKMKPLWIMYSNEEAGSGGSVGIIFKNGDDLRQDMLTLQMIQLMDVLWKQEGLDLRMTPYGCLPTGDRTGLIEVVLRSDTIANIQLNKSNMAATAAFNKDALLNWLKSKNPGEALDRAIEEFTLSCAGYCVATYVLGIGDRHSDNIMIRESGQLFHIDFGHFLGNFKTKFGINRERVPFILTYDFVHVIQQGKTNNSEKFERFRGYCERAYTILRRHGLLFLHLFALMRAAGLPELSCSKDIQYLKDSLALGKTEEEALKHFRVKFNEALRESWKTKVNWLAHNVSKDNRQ
Description: Inhibition of human PI3Kdelta (108 to 1044 residues) expressed in mammalian expression system by KINOMEscan assay

[14] = molecular target: Phosphatidylinositol 4,5-bisphosphate 3-kinase catalytic subunit gamma isoform (Homo sapiens, UniProt P48736)
Description: Inhibition of human PI3Kgamma (144 to 1102 residues) expressed in mammalian expression system by KINOMEscan assay

[15] = molecular target: T1, Phosphatidylinositol 4,5-bisphosphate 3-kinase catalytic subunit alpha isoform; remark: listed apart in the source
Description: Inhibition of human PI3Kalpha (108 to 1068 residues) expressed in mammalian expression system by KINOMEscan assay

[16] = molecular target: Phosphatidylinositol 4,5-bisphosphate 3-kinase catalytic subunit beta isoform (Homo sapiens, UniProt P42338)
Phosphatidylinositol 4,5-bisphosphate 3-kinase catalytic subunit beta isoform, sequence (P42338 whole entry, canonical isoform): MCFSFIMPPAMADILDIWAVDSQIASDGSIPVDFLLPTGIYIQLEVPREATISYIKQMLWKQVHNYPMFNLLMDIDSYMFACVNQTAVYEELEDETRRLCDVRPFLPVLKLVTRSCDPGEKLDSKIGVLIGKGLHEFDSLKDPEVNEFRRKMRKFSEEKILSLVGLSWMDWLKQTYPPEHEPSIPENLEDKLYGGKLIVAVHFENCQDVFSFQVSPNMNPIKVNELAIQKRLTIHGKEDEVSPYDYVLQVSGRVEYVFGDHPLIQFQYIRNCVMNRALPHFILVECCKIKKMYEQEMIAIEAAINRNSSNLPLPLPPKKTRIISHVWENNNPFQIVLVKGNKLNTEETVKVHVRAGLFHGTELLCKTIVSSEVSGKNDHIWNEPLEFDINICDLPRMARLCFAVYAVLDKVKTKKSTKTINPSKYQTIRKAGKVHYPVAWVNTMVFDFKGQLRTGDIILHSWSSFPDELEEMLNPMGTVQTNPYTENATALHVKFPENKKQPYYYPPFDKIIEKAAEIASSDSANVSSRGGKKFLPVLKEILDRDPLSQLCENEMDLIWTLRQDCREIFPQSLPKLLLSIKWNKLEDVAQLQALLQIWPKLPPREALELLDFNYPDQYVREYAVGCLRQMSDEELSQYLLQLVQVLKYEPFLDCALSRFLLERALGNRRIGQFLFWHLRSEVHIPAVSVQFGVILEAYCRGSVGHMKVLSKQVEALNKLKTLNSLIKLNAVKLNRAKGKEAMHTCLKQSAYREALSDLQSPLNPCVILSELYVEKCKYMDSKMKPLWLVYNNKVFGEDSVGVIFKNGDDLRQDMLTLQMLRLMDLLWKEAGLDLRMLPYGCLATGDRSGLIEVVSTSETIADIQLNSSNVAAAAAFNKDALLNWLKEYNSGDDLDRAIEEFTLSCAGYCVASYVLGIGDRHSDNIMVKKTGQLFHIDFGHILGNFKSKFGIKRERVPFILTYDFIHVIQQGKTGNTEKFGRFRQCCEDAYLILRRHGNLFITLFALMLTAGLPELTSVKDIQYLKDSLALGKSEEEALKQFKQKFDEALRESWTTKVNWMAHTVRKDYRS
Description: Inhibition of human PI3Kbeta (118 to 1070 residues) expressed in mammalian expression system by KINOMEscan assay

Phosphatidylinositol 3-kinase catalytic subunit type 3, sequence (Q8NEB9 whole entry, the tested form may be a part): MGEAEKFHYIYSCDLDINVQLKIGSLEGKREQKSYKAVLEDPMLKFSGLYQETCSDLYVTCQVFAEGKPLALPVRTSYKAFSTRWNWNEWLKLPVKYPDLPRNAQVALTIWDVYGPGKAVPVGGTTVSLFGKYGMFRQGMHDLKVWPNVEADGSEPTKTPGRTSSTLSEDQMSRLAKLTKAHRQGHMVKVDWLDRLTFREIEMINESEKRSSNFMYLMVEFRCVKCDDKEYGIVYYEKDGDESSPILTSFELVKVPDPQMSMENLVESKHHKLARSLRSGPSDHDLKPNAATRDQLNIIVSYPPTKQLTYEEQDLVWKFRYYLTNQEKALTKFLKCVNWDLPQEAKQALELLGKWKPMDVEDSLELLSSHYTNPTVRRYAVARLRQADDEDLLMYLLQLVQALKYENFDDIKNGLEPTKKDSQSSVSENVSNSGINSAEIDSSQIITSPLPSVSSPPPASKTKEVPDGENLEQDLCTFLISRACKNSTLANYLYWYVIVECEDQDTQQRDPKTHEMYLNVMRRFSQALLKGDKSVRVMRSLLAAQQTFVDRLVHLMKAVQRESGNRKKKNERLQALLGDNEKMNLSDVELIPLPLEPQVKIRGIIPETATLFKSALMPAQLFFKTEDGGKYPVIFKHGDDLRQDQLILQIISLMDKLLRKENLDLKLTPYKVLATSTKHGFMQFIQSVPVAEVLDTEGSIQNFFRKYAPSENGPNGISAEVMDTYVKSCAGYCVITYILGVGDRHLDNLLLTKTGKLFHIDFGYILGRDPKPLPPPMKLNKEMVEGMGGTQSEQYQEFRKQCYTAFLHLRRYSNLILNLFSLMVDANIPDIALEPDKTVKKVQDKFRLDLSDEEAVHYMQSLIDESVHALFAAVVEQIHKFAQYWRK
T1 sequence (P42336 whole entry, canonical isoform): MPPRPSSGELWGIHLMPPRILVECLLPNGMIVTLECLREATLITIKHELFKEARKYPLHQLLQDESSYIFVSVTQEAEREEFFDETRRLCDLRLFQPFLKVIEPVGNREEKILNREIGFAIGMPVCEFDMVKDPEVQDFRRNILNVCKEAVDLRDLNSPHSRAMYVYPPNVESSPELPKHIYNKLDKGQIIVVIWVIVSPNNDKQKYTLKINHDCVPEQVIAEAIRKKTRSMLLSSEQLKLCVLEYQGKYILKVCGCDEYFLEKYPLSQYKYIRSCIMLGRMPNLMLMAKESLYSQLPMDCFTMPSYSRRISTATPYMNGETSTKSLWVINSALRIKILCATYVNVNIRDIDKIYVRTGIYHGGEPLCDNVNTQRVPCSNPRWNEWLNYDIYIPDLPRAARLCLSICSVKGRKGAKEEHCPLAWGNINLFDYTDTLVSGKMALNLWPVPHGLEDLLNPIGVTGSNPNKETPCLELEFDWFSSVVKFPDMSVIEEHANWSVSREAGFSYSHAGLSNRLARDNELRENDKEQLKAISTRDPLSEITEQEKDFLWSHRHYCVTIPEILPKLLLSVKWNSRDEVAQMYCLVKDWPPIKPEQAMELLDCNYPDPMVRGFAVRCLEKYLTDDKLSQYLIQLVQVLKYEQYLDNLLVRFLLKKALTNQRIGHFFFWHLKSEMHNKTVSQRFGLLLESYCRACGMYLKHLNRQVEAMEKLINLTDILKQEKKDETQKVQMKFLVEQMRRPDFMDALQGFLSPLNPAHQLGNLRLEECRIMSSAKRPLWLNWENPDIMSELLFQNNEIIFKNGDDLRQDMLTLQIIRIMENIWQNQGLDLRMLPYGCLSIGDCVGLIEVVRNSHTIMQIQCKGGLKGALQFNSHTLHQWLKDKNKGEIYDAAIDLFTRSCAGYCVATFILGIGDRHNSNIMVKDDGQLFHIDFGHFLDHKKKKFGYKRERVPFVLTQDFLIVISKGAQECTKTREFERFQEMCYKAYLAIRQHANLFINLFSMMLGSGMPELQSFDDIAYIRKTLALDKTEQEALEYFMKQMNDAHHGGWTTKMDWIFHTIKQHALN
Phosphatidylinositol 4-kinase beta, sequence (Q9UBF8 whole entry, canonical isoform): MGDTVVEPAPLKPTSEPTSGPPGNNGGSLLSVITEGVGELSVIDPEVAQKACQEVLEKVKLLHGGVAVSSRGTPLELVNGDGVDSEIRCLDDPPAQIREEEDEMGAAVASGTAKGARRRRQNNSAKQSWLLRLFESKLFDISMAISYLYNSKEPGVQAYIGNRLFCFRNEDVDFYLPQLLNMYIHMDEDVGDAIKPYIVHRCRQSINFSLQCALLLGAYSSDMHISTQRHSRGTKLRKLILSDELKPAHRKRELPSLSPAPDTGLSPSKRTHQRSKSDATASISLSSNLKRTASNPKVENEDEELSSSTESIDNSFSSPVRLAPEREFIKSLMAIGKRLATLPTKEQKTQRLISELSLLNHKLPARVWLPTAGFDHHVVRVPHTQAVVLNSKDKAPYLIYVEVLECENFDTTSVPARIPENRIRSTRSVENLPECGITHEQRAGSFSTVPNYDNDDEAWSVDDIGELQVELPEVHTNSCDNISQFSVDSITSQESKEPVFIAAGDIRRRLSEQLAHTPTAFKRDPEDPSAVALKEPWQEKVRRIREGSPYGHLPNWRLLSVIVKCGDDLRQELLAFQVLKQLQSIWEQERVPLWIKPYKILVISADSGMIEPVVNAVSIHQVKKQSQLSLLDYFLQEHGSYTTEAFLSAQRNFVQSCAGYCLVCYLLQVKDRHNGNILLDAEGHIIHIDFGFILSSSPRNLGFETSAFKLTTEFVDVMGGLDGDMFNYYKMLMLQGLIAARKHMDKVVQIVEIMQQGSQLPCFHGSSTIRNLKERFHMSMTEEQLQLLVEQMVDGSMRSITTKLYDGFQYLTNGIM
Phosphatidylinositol 4,5-bisphosphate 3-kinase catalytic subunit gamma isoform, sequence (P48736 whole entry, canonical isoform): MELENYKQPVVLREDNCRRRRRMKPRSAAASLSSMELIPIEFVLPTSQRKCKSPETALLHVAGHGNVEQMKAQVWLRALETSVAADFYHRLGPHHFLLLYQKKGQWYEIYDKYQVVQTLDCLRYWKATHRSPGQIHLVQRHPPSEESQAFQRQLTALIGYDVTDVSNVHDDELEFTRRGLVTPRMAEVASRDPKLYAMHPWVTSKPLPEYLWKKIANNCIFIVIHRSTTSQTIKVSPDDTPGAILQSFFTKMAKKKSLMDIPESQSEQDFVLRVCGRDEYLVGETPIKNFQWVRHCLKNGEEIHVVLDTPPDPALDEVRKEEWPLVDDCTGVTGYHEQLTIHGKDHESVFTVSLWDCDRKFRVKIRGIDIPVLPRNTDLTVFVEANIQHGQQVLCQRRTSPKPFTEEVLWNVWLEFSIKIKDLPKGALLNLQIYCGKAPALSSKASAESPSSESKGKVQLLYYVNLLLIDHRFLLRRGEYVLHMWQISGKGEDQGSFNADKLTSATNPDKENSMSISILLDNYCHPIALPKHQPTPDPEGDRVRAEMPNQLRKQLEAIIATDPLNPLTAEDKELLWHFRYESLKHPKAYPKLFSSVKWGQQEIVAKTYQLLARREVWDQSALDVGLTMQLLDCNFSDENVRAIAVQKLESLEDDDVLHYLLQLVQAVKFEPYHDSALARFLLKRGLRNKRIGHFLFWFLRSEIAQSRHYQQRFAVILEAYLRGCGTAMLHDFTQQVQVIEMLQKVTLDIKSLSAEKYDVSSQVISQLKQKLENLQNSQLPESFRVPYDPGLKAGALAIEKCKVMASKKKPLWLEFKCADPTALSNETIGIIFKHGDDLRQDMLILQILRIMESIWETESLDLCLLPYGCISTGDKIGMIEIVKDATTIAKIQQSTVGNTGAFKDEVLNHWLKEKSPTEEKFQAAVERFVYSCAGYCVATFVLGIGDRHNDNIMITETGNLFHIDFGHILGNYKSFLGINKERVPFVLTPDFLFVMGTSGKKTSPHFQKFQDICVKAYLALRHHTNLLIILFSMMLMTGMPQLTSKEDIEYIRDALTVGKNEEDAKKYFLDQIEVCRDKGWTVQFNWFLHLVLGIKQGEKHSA

| Compound | Ki [1] [µM] | IC50 [2] [µM] | IC50 [3] [µM] | Ki [4] [µM] | further results |
| --- | --- | --- | --- | --- | --- |
| CC[C@@H]1COCCN1c1nc(-c2cnc(N)cc2C(F)F)nc(N2CCOC[C@H]2CC)n1 | 0.0322 | 0.354 | 0.209 | 0.0136 | – |
| Nc1cc(C(F)F)c(-c2nc(N3CC4CCC(C3)O4)nc(N3CC4CCC(C3)O4)n2)cn1 | 1.3 | 0.63 | 0.301 | 0.0139 | – |
| Nc1cc(C(F)F)c(-c2nc(N3C4CCC3COC4)cc(N3C4CCC3COC4)n2)cn1 | 2.23 | 0.65 | 0.395 | 0.06 | – |
| Nc1cc(C(F)(F)F)c(-c2nc(N3CCOCC3)cc(N3CCOCC3)n2)cn1 | 0.041 | 0.729 | 0.926 | 0.911 | – |
| Nc1cc(CF)c(-c2nc(N3CCOCC3)nc(N3CCOCC3)n2)cn1 | 0.0686 | 0.397 | 0.218 | 0.0543 | – |
| Nc1cc(C(F)F)c(-c2cc(N3CCOCC3)nc(N3CCOCC3)n2)cn1 | 0.018 | 0.207 | 0.184 | 0.035 | – |
| Nc1cc(C(F)F)c(-c2nc(N3C[C@H]4C[C@@H]3CO4)nc(N3C[C@H]4C[C@@H]3CO4)n2)cn1 | 4.63 | 17.7 | 12.6 | 0.308 | – |
| Nc1cc(C(F)F)c(-c2nc(N3CCOCC3)cc(N3CCOCC3)n2)cn1 | 0.029 | 0.243 | 0.256 | 0.042 | – |
| C[C@@H]1CN(c2nc(-c3cnc(N)cc3C(F)F)nc(N3C[C@@H](C)O[C@@H](C)C3)n2)C[C@H](C)O1 | 15.4 | 20.9 | 10.4 | 0.65 | – |
| COC(OC)c1cc(N)ncc1-c1nc(N2CCOCC2)nc(N2CCOCC2)n1 | 0.129 | 1.2 | 2.11 | 0.474 | – |
| Nc1cc(C(F)F)c(-c2nc(N3C4CCCC3COC4)nc(N3C4CCCC3COC4)n2)cn1 | > 20 | 1.21 | 1.3 | 0.0602 | – |
| C[C@@H]1COCCN1c1nc(-c2cnc(N)cc2C(F)F)nc(N2CCOC[C@H]2C)n1 | 0.633 | 0.364 | 0.31 | 0.0126 | – |
| COc1cc(N)ncc1-c1nc(N2CCOCC2)nc(N2CCOCC2)n1 | 0.693 | 1.85 | 1.92 | 0.483 | – |
| Nc1cc(C(F)(F)F)c(-c2nc(N3C4CCC3COC4)cc(N3C4CCC3COC4)n2)cn1 | 5.67 | 3.32 | 1.94 | 0.435 | – |
| CC(C)n1nc(-c2ccc3oc(N)nc3c2)c2c(N)ncnc21 [SAPANISERTIB] | – | – | – | – | Kd [5]: 8.2 µM |
| Nc1cc(C(F)F)c(-c2nc(N3CCOCC3)nc(N3C4CCC3COC4)n2)cn1 | 0.0258 | 0.156 | 0.113 | 0.0112 | – |
| Nc1cc(C(F)F)c(-c2nc(N3CCOCC3)nc(N3CCOCC3)n2)cn1 | – | 0.102 | 0.118 | – | – |

| Compound | Ki [1] [µM] | IC50 [2] [µM] | IC50 [3] [µM] | Ki [4] [µM] | further results |
| --- | --- | --- | --- | --- | --- |
| Nc1cc(C(F)F)c(-c2nc(N3C4COCC3COC4)nc(N3C4COCC3COC4)n2)cn1 | 2.38 | 0.357 | 0.275 | 0.031 | – |
| Nc1cc(C(F)(F)F)c(-c2cc(N3C4CCC3COC4)nc(N3C4CCC3COC4)n2)cn1 | 2.19 | 0.52 | 0.318 | 0.03 | – |
| Nc1cc(C(F)F)c(-c2nc(N3CCOCC34CCC4)nc(N3CCOCC34CCC4)n2)cn1 | 0.632 | 0.942 | 0.526 | 0.0328 | – |
| Nc1cc(C(F)(F)F)c(-c2nc(N3CCOCC3)nc(N3CCOCC3)n2)cn1 [BIMIRALISIB] | – | – | – | – | Activity (Mus musculus [6]): Non-Toxic; Activity (Rattus norvegicus [7]): Active; Activity (Rattus norvegicus [8]): Active; Activity (Mus musculus [9]): Active; Activity (Mus musculus [10]): Active; Activity (Mus musculus [11]): inactive; inhibition in vivo at 50 mg/kg (OVCAR-3): > 50% |
| Nc1cc(C(F)(F)F)c(-c2cc(N3CCOCC3)nc(N3CCOCC3)n2)cn1 [BUPARLISIB] | – | 0.416 | 0.553 | – | – |
| Nc1cc(C(F)F)c(-c2nc(N3C4COCC3C4)nc(N3C4COCC3C4)n2)cn1 | > 20 | 17.9 | 5.77 | 0.551 | – |
| CO[C@H]1CC[C@H](N2C(=O)CNc3ncc(-c4ccc(C(C)(C)O)nc4)nc32)CC1 [ONATASERTIB] | – | – | – | – | Kd [12]: 0.039 µM; Kd [5]: 2.5 µM |
| CNC(=O)c1cccc(-c2ccc3c(N4CCOC[C@@H]4C)nc(N4CCOC[C@@H]4C)nc3n2)c1 [VISTUSERTIB] | – | – | – | – | Kd [12]: > 30 µM; Kd [13]: 1.5 µM; Kd [14]: 8.4 µM; Kd [15]: 0.033 µM; Kd [5]: 23 µM; Kd [16]: 3.3 µM |
| Nc1cc(C(F)F)c(-c2nc(N3CCOCC3)nc(N3CC4CCC(C3)O4)n2)cn1 | 0.0237 | 0.144 | 0.112 | 0.0034 | – |
| C[C@@H]1COCCN1c1nc(-c2cnc(N)cc2C(F)F)nc(N2CCOCC2)n1 | 0.0208 | 0.147 | 0.138 | 0.0096 | – |
| C[C@@H]1COC[C@H](C)N1c1nc(-c2cnc(N)cc2C(F)F)nc(N2[C@H](C)COC[C@@H]2C)n1 | 0.141 | 0.252 | 0.16 | 0.0035 | – |
| C[C@@H]1COC[C@@H](C)N1c1nc(-c2cnc(N)cc2C(F)F)nc(N2[C@H](C)COC[C@H]2C)n1 | > 20 | 3.57 | 1.19 | 0.0799 | – |
| C[C@H]1COC[C@H](C)N1c1nc(-c2cnc(N)cc2C(F)F)nc(N2[C@@H](C)COC[C@@H]2C)n1 | 0.064 | 0.379 | 0.294 | 0.0211 | – |
| Nc1cc(CO)c(-c2nc(N3CCOCC3)nc(N3CCOCC3)n2)cn1 | 0.0813 | 0.341 | 0.528 | 0.0745 | – |
| Nc1cc(C(F)F)c(-c2nc(N3C[C@@H]4C[C@H]3CO4)nc(N3C[C@@H]4C[C@H]3CO4)n2)cn1 | > 20 | 4.04 | 1.56 | 0.0185 | – |
| Nc1cc(C(F)F)c(-c2cc(N3C4CCC3COC4)nc(N3C4CCC3COC4)n2)cn1 | 2.09 | 0.287 | 0.164 | 0.012 | – |
| CC1(C)CN(c2nc(-c3cnc(N)cc3C(F)F)nc(N3CCOC(C)(C)C3)n2)CCO1 | 8.79 | 4.82 | 2.33 | 0.0734 | – |

Reference: ChEMBL document CHEMBL4270669 (J Med Chem, 2018)
